Patent publication US12668599B2, “Heterobifunctional compounds and methods of treating disease” (Halda Therapeutics OpCo, Inc., priority 2023, dated 2026)

Columns and labels:
T47D cells = experiment: Cellular growth inhibition assay for T47D cells (CellTiter-Glo 2.0, 72 hours); type: cell-based, human; details: Homo sapiens, T47D, 72 h
Description: Exemplary compounds were tested for ability to inhibit the proliferation of T47D cells. T47D cells are a commercially available human breast cancer cell line.
T47D cells were purchased from American Type Cell Culture (ATCC Cat #HTB-133) and then seeded on poly-D-lysine coated, black clear-bottom 384-well plates at 3000/well in 25 μL Dulbecco's Modified Eagle Medium (DMEM) supplemented with 10% w/w Fetal bovine serum (FBS), 0.2 units/mL recombinant human insulin (Gibco Cat #12585014), and 1% w/w Pen-Strep. Pen-Strep is a commercially available mixture of penicillin G and streptomycin, which is used in mammalian cell culture media to prevent bacterial contamination. Dulbecco's Modified Eagle Medium (DMEM) supplemented with 10% w/w fetal bovine serum (FBS), 0.2 units/mL recombinant human insulin, and 1% w/w Pen-Strep is herein referred to as Treatment Medium. Following seeding of cells in the plates, the plates were spun at 300×g for 30 seconds, then equilibrated to room temperature for 30 minutes, and then deposited in a humidified tissue culture incubator maintained at 37° C. with 5% CO2.
At 24 hours after seeding of the cells, dilutions of test compound were prepared in DMSO and dissolved in Treatment Medium, to achieve a final DMSO concentration of 0.5% w/w, thereby providing the Test Compound Solution. A 25 μL aliquot of the Test Compound Solution was added to cells in the well plates. An equal volume of a solution containing DMSO and Treatment Medium was used as a negative control. Following treatment of cells with Test Compound Solution or said equal volume of a solution containing DMSO and Treatment Medium, the plates were spun at 300×g for 30 seconds, and then left in an incubator for 72 hours.
At the end of the treatment duration, cell viability was quantified with CellTiter-Glo 2.0 reagent (Promega Cat #G9243). For this purpose, plates were equilibrated to room temperature for 30 minutes, and then 25 μL of CellTiter-Glo 2.0 reagent was added to cells in the plate wells. Plates were then agitated on a shaker for two minutes at 500 rpm and subsequently incubated at room temperature for 10 minutes. Following incubation, the plates were spun at 3000×g for 30 seconds, then sealed with an optical adhesive cover, and luminescence readings were measured with an En Vision Plate Reader (Perkin Elmer).
Data was normalized using zero luminescence for baseline. A four-parameter non-linear regression curve fit was applied to dose-response data in GraphPad Prism data analysis software to determine the half-maximal growth inhibitory concentration (GI50) for each test compound.

[1] = Stability analysis of Crystal Form A and Crystal Form B in solvent suspensions (XRPD); type: physicochemical
Description: The obtained suspensions were stirred at 25° C. and 50° C. for 1 week, respectively. Solid parts (wet cakes) were isolated by centrifugation filtration at […] temperature and investigated by XRPD.

VCaP cell tumors = experiment: Castrate VCaP tumor xenograft study, tumor growth; type: in vivo; details: castrated CB17.SCID mice bearing VCaP tumors, oral gavage; same mg/kg dose and dosing frequency for Compound II-5 and Compound A, FIG. 8
Description: Compound II-5 was evaluated for in vivo performance when administered to CB17.SCID mice bearing VCaP cell tumors.
5M VCaP cells were subcutaneously implanted into CB17.SCID mice in 50% Matrigel (Corning). Mice were castrated under anesthesia once tumor volumes reached 100 mm^3. Tumors were then allowed to reach an average of approximately 150 mm^3 before randomization into efficacy arms. Tumors were measured twice weekly for Tumor Growth Inhibition (TGI) calculation. For PK/PD analysis, tumors were allowed to reach an average of 400 mm^3, before dosing the mice with test compound by oral gavage (n=5) for seven days. Mice were sacrificed 24 hours following the final dose, and tumors were harvested for downstream analysis. Plasma samples were collected from all dosed mice 2 hours following the final dose to determine test compound exposure by LC-MS/MS. Test compounds used in the experiment were (i) Compound II-5 and (ii) a commercially available nonsteroidal antiandrogen medication that has been approved by the United States Food and Drug Administration for treatment of prostate cancer (hereinafter “Compound A”).

[2] = system: T-Rex 293 cell line SC3 cells having increased expression of androgen receptor protein due to exposure to doxycycline; experiment: Cellular growth inhibition, T-Rex 293 SC3 cells with doxycycline-induced androgen receptor (CellTiter-Glo 2.0, 72 hours); type: cell-based
[3] = system: T-Rex 293 cell line SC3 cells lacking increased expression of androgen receptor protein; experiment: Cellular growth inhibition, T-Rex 293 SC3 cells without doxycycline (CellTiter-Glo 2.0, 72 hours); type: cell-based; details: 72 h, T-Rex 293 SC3 cells not exposed to doxycycline (no increased androgen receptor expression)

With `COc1cc(O[C@H]2C(C)(C)[C@H](NC(=O)c3cnc(N4CCC5(CC4)CC(Oc4ccc(C6=N[C@@H](Cc7ncco7)c7nnc(C)n7-c7sc(C)c(C)c76)cc4)C5)nc3)C2(C)C)ccc1C#N` [II-5, N-[(1r,3r)-3-(4-cyano-3-methoxy-phenoxy)-2,2,4,4-tetramethyl-cyclobutyl]-2-[2-[4-[(9S)-4,5,13-trimethyl-9-(oxazol-2-ylmethyl)-3-thia-1,8,11,12-tetrazatricyclo[8.3.0.0^2,6]trideca-2 (6),4,7,10,12-pentaen-7-yl]phenoxy]-7-azaspiro[3.5]nonan-7-yl]pyrimidine-5-carboxamide] the GI50 (T47D cells) was under 0.5 µM, the “XRPD form after suspension” value ([1]; about 3 mg Crystal Form A + 3 mg Crystal Form B in saturated Acetone solution, 25° C. for 1 week) was “Crystal Form A” and the “XRPD form after suspension” value ([1]; about 3 mg Crystal Form A + 3 mg Crystal Form B in saturated Acetone solution, 50° C. for 1 week) was “Crystal Form A”. The “XRPD form after suspension” value ([1]; about 3 mg Crystal Form A + 3 mg Crystal Form B in saturated Acetonitrile solution, 25° C. for 1 week) was “Crystal Form A”, the “XRPD form after suspension” value ([1]; about 3 mg Crystal Form A + 3 mg Crystal Form B in saturated Acetonitrile solution, 50° C. for 1 week) was “Crystal Form A” and the “XRPD form after suspension” value ([1]; about 3 mg Crystal Form A + 3 mg Crystal Form B in saturated EtOH solution, 25° C. for 1 week) was “Crystal Form A”. The “XRPD form after suspension” value ([1]; about 3 mg Crystal Form A + 3 mg Crystal Form B in saturated EtOH solution, 50° C. for 1 week) was “Crystal Form A”, the “XRPD form after suspension” value ([1]; about 3 mg Crystal Form A + 3 mg Crystal Form B in saturated THF/Heptane (1/1, v/v) solution, 25° C. for 1 week) was “Crystal Form A” and the “XRPD form after suspension” value ([1]; about 3 mg Crystal Form A + 3 mg Crystal Form B in saturated THF/Heptane (1/1, v/v) solution, 50° C. for 1 week) was “Crystal Form A”. For the same compound, the “tumor growth inhibition (tumor volume)” value (VCaP cell tumors) was “more effective in reducing tumor growth in this experiment than Compound A”, the “Ratio of GI50's” value ([2]; GI50 of the top compound in the pair divided by GI50 of the lower compound, T-Rex 293 SC3 cells with doxycycline-induced androgen receptor) was 1 and the GI50 ([2]; T-Rex 293 SC3 cells with 10 ng/ml doxycycline (increased androgen receptor expression), 72 hours, CellTiter-Glo 2.0) was under 0.5 µM. The GI50 [3] was under 0.5 µM.
